The values below are quoted from earlier work in patent US8283180B2, “Periodic acid-schiff staining with detection in the infrared range” (Amicus Therapeutics, Inc., priority 2007, dated 2012).

Data set [1] relates to Japanese medaka (Oryzias latipes). Conditions: low DCA exposure concentrations; as early as week two of exposure.

Consider `O=C(O)C(Cl)Cl` [DCA, dichloroacetic acid], for which the carcinogenicity result in the data set on mice and with rats was “carcinogenic” throughout. Moreover, the “changes in the liver” value in data set [1] was “marked hepatocellular cytoplasmic vacuolation, cytomegaly, karyomegaly, nuclear atypia and multifocal areas of hepatocellular necrosis and loss”.

In the case of “Myozyme: enzyme replacement therapy with recombinant α-glucosidase, approved for infantile Pompe disease”, in the data set on infantile Pompe disease, the left-ventricular mass index entry is “improved with treatment”. In addition, the “motor function by the Alberta Infant Motor Scale (AIMS)” value in the data set with infantile Pompe disease (unblinded assessment) is “did not improve with treatment”.
